Measured values published in US8299056B2 (Signal Pharmaceuticals, LLC, priority 2008, dated 2012).
Where two headings read alike, the source gives them in different places.

Target: T1, Syk (Homo sapiens, UniProt P43405)
T1 construct: purchased Carna Biosciences
Assay: Syk HTRF assay
Format: biochemical
Method: Test compounds were prepared at a concentration of 1.5 mM in DMSO followed by 3-fold dilutions in Greiner […] polypropylene plates. A 1:4 dilution of compounds by 8 μL/well transfer from the polypropylene plates to 24 μL/well Assay Buffer in Costar 3710 384 well black plates was then performed. Kinases (13 μL/well) or Assay Buffer only (background controls; 50 mM HEPES pH 7.6, 1 mM DTT, 10 mM MgCl2, 0.01% Triton X100, 0.01% BSA and 0.1 mM EDTA) were added to Costar 3710 384-well black plates for the HTRF assays (Carna Biosciences) and compound was added from the 1:4 dilution plate. Syk start mix (87.5 μM ATP, 80 nM Substrate Peptide (American Peptide Company 332722) was added and the mixture was incubated at room temperature for 1 hour. Syk Stop Solution (120 mM EDTA in dilution buffer) was then added to the Syk HTRF assay plate and incubated at room temperature on a shaker for 2 minutes. Syk Antibody Mix (4.86 μg/mL DyLight 647 Streptavidin (Pierce 21824); 1 μg/mL Lance Eu-Anti-Phosphotyrosine (PerkinElmer AD0069)) was added to the Syk HTRF assay plate and the mixture was further incubated at room temperature for >4 h. Time resolved fluorescence was read in assay plates on a PerkinElmer EnVision. HTRF assays were performed using 320 nm excitation, 60 μs delay, 665 nm and 615 nm emission. Data was expressed by division of 665 nm by 615 nm emissions.

[1] = activity levels A-D, read-out: Activity Level (IC50 in the Syk HTRF assay)
[2] = read-out: Activity Level (Syk HTRF assay IC50)
[3] = IC50 activity level, read-out: Activity Level

Question: With `O[C@H]1CC[C@@H](Nc2cccc3nc(Nc4ccncc4)nn23)CC1` [Example 389, cis-4-(2-(pyridin-4-ylamino)-[1,2,4]triazolo[1,5-a]pyridin-5-ylamino)cyclohexanol] as the compound, how does the IC50 [1] read?
Answer: 1000 to 10000 nM

Question: Which IC50 [2] does the source give for `Cc1n[nH]c2cc(Nc3nc4cccc(NC[C@@H]5CC[C@H](O)C5)n4n3)ccc12` [Example 178, (1S,3R)-3-((2-(3-methyl-1H-indazol-6-ylamino)-[1,2,4]triazolo[1,5-a]pyridin-5-ylamino)methyl)cyclopentanol] here?
Answer: 0.005 to 250 nM

Question: Which IC50 [3] does the source give for `CNC(=O)c1ccc(Nc2nc3cccc(NC4CCOC4)n3n2)cc1` (stereo not drawn) [Example 441, N-methyl-4-(5-(tetrahydrofuran-3-ylamino)-[1,2,4]triazolo[1,5-a]pyridin-2-ylamino)benzamide] here?
Answer: 1000 to 10000 nM

Question: With `Cc1cccc2nc(Nc3ccc4c(c3)NC(=O)C4(C)C)nn12` [Example 564] as the compound, how does the IC50 [3] read?
Answer: 0.005 to 250 nM

Question: With `Cc1n[nH]c2cc(Nc3nc4cccc(C[C@H]5CC[C@@H](O)CC5)n4n3)ccc12` [Example 239, cis-4-((2-(3-methyl-1H-indazol-6-ylamino)-[1,2,4]triazolo[1,5-a]pyridin-5-yl)methyl)cyclohexanol] as the compound, how does the IC50 [1] read?
Answer: 0.005 to 250 nM

Question: For `Cn1ncc2ccc(Nc3nc4cccc(-c5cccc(O)c5)n4n3)cc21` [compound 19], which IC50 [2] is on record?
Answer: 0.005 to 250 nM

Question: `COc1cc(Nc2nc3cccc(N[C@H]4CC[C@@H](O)CC4)n3n2)ccn1` [Example 378, cis-4-(2-(2-methoxypyridin-4-ylamino)-[1,2,4]triazolo[1,5-a]pyridin-5-ylamino)cyclohexanol] was tested. Which IC50 [1] did it give?
Answer: 0.005 to 250 nM

Question: For `CO[C@H]1CC[C@@H](N(C)c2cccc3nc(Nc4ccc(C(F)(F)F)cc4)nn23)CC1` [Example 265, cis-N^5-(4-methoxycyclohexyl)-N^5-methyl-N^2-(4-(trifluoromethyl)phenyl)-[1,2,4]triazolo[1,5-a]pyridine-2,5-diamine], which IC50 [1] is on record?
Answer: 1000 to 10000 nM

Question: `CN1C(=O)C(C)(C)c2ccc(Nc3nc4cccc(NC5CCOC5)n4n3)cc21` (stereo in doubt) [compound 123, (R)-1,3,3-trimethyl-6-(5-(tetrahydrofuran-3-ylamino)-[1,2,4]triazolo[1,5-a]pyridin-2-ylamino)indolin-2-one] was tested. Which IC50 [2] did it give?
Answer: 0.005 to 250 nM

Question: Which IC50 [1] does the source give for `C[C@@H](CO)Nc1cccc2nc(Nc3ccc(C(F)(F)F)cc3)nn12` [Example 329, (S)-2-(2-(4-(trifluoromethyl)phenylamino)-[1,2,4]triazolo[1,5-a]pyridin-5-ylamino)propan-1-ol] here?
Answer: 500 to 1000 nM

Question: For `OC[C@@H]1CCN(c2cccc3nc(Nc4ccc(C(F)(F)F)cc4)nn23)C1` [Example 326, (R)-(1-(2-(4-(trifluoromethyl)phenylamino)-[1,2,4]triazolo[1,5-a]pyridin-5-yl)pyrrolidin-3-yl)methanol], which IC50 [1] is on record?
Answer: 250 to 500 nM

Question: Which IC50 [3] does the source give for `Nc1nccc2ccc(-c3cccc4nc(Nc5ccccc5)nn34)cc12` [Example 489, 7-(2-(phenylamino)-[1,2,4]triazolo[1,5-a]pyridin-5-yl)isoquinolin-1-amine] here?
Answer: 500 to 1000 nM

Question: `CNCc1nc2ccc(-c3cccc4nc(Nc5ccc(C(F)(F)F)cc5)nn34)cc2[nH]1` [Example 440, 5-(2-((methylamino)methyl)-1H-benzo[d]imidazol-6-yl)-N-(4-(trifluoromethyl)phenyl)-[1,2,4]triazolo[1,5-a]pyridin-2-amine] was tested. Which IC50 [3] did it give?
Answer: 0.005 to 250 nM

Question: For `NC(=O)c1ccc(Nc2nc3cccc(-c4ccccc4)n3n2)cc1F` [compound 73, 2-fluoro-4-(5-phenyl-[1,2,4]triazolo[1,5-a]pyridin-2-ylamino)benzamide], which IC50 [2] is on record?
Answer: 1000 to 10000 nM

Question: With `O[C@H]1CCC[C@H](Nc2cccc3nc(Nc4ccc(C(F)(F)F)cc4)nn23)C1` (racemic) [Example 248, (±)-trans-3-(2-(4-(trifluoromethyl)phenylamino)-[1,2,4]triazolo[1,5-a]pyridin-5-ylamino)cyclohexanol] as the compound, how does the IC50 [1] read?
Answer: 0.005 to 250 nM

Question: With `CC1(C)NC(=O)c2cc(Nc3nc4cccc(N[C@H]5CC[C@H](O)CC5)n4n3)ccc21` (stereo in doubt) [Example 137, trans-6-(5-(4-hydroxycyclohexylamino)-[1,2,4]triazolo[1,5-a]pyridin-2-ylamino)-3,3-dimethylisoindolin-1-one] as the compound, how does the IC50 [2] read?
Answer: 500 to 1000 nM

Question: `c1ccc(-c2cccc3nc(Nc4cccnc4)nn23)cc1` [compound 75, 5-phenyl-N-(pyridin-3-yl)-[1,2,4]triazolo[1,5-a]pyridin-2-amine] was tested. Which IC50 [2] did it give?
Answer: 500 to 1000 nM

Question: Which IC50 [3] does the source give for `O=C(N[C@H]1CCCNC1)c1cccc2nc(Nc3ccccc3)nn12` [Example 504, (S)-2-(phenylamino)-N-(piperidin-3-yl)-[1,2,4]triazolo[1,5-a]pyridine-5-carboxamide] here?
Answer: 1000 to 10000 nM

Question: `O[C@H]1CCC[C@H](Nc2cccc3nc(Nc4ccc(C(F)(F)F)cc4)nn23)C1` (single isomer, unassigned; enantiomer 2) [Example 226, trans-3-(2-(4-(trifluoromethyl)(phenylamino)-[1,2,4]triazolo[1,5-a]pyridin-5-ylamino)cyclohexanol (enantiomer 2)] was tested. Which IC50 [1] did it give?
Answer: 500 to 1000 nM

Question: Which IC50 [3] does the source give for `Cc1cc(Nc2nc3cccc(N[C@H]4CC[C@@H](O)CC4)n3n2)cc2c1CC(=O)N2C` [Example 556] here?
Answer: 0.005 to 250 nM

Question: `O[C@H]1CCN(Cc2cccc3nc(Nc4ccc(C(F)(F)F)cc4)nn23)C1` [Example 336, (S)-1-((2-(4-(trifluoromethyl)phenylamino)-[1,2,4]triazolo[1,5-a]pyridin-5-yl)methyl)pyrrolidin-3-ol] was tested. Which IC50 [1] did it give?
Answer: 1000 to 10000 nM

Question: With `NC(=O)c1ccc(Nc2nc3cccc(N[C@H]4CC[C@@H](O)CC4)n3n2)cc1` [Example 429, cis-4-(5-(4-hydroxycyclohexylamino)-[1,2,4]triazolo[1,5-a]pyridin-2-ylamino)benzamide] as the compound, how does the IC50 [3] read?
Answer: 0.005 to 250 nM

Question: How did the IC50 [2] turn out when `Cc1nn(C)c2cc(Nc3nc4cccc(N[C@H]5CC[C@@H](O)CC5)n4n3)cc(F)c12` [Example 149, cis-4-(2-(4-fluoro-1,3-dimethyl-1H-indazol-6-ylamino)-[1,2,4]triazolo[1,5-a]pyridin-5-ylamino)cyclohexanol] was run?
Answer: 0.005 to 250 nM

Question: `c1ccc(Nc2nc3cccc(-c4ccccc4)n3n2)cc1` [Example 98] was tested. Which IC50 [2] did it give?
Answer: 500 to 1000 nM

Question: For `COCc1nc2ccc(Nc3nc4cccc(NC5CCOCC5)n4n3)cc2[nH]1` [Example 142, N^2-(2-(methoxymethyl)-1H-benzo[d]imidazol-6-yl)-N^5-(tetrahydro-2H-pyran-4-yl)-[1,2,4]triazolo[1,5-a]pyridine-2,5-diamine], which IC50 [2] is on record?
Answer: 250 to 500 nM

Question: With `Cn1ncc2ccc(Nc3nc4cccc(NC5CCOCC5)n4n3)cc21` [Example 161, N^2-(1-methyl-1H-indazol-6-yl)-N^5-(tetrahydro-2H-pyran-4-yl)-[1,2,4]triazolo[1,5-a]pyridin-2,5-diamine] as the compound, how does the IC50 [2] read?
Answer: 0.005 to 250 nM

Question: `OC1CC[C@H](Nc2cccc3nc(Nc4ccc(C(F)(F)F)cc4)nn23)C1` (stereo in doubt) [Example 419, (1S,3S)-3-(2-(4-(trifluoromethyl)phenylamino)-[1,2,4]triazolo[1,5-a]pyridin-5-ylamino)cyclopentanol] was tested. Which IC50 [3] did it give?
Answer: 250 to 500 nM

Question: For `COc1cccc(Nc2nc3cccc(N[C@H]4CC[C@@H](O)CC4)n3n2)c1` [Example 338, cis-4-(2-(3-methoxyphenylamino)-[1,2,4]triazolo[1,5-a]pyridin-5-ylamino)cyclohexanol], which IC50 [1] is on record?
Answer: 0.005 to 250 nM

Question: How did the IC50 [1] turn out when `NC(=O)c1cc(Nc2nc3cccc(N[C@H]4CC[C@@H](O)CC4)n3n2)ccn1` [Example 255, cis-4-(5-(4-hydroxycyclohexylamino)-[1,2,4]triazolo[1,5-a]pyridin-2-ylamino)picolinamide] was run?
Answer: 1000 to 10000 nM

Question: `O[C@@H]1CC[C@H](Nc2cccc3nc(Nc4ccc(C(F)(F)F)cc4)nn23)C1` [Example 421, (1R,3S)-3-(2-(4-(trifluoromethyl)phenylamino)-[1,2,4]triazolo[1,5-a]pyridin-5-ylamino)cyclopentanol] was tested. Which IC50 [3] did it give?
Answer: 250 to 500 nM

Question: For `Cc1n[nH]c2cc(Nc3nc4cccc(N[C@H]5CC[C@@H](O)CC5)n4n3)cc(F)c12` [Example 164, cis-4-(2-(4-fluoro-3-methyl-1H-indazol-6-ylamino)-[1,2,4]triazolo[1,5-a]pyridin-5-ylamino)cyclohexanol], which IC50 [2] is on record?
Answer: 0.005 to 250 nM

Question: For `CCc1n[nH]c2cc(Nc3nc4cccc(N[C@H]5CC[C@@H](O)CC5)n4n3)ccc12` [Example 245, cis-4-(2-(3-ethyl-1H-indazol-6-ylamino)-[1,2,4]triazolo[1,5-a]pyridin-5-ylamino)cyclohexanol], which IC50 [1] is on record?
Answer: 0.005 to 250 nM

Question: Which IC50 [1] does the source give for `NC(=O)CNCc1cccc2nc(Nc3ccc(C(F)(F)F)cc3)nn12` [Example 290, 2-((2-(4-(trifluoromethyl)phenylamino)-[1,2,4]triazolo[1,5-a]pyridin-5-yl)methylamino)acetamide] here?
Answer: 0.005 to 250 nM

Question: `Nc1noc2ccc(-c3cccc4nc(Nc5ccccc5)nn34)cc12` [Example 457, 5-(2-(phenylamino)-[1,2,4]triazolo[1,5-a]pyridin-5-yl)benzo[d]isoxazol-3-amine] was tested. Which IC50 [3] did it give?
Answer: 0.005 to 250 nM

Question: `NC(=O)[C@H]1CC[C@@H](Oc2cccc3nc(Nc4ccc(C(F)(F)F)cc4)nn23)CC1` [Example 344, cis-4-(2-(4-(trifluoromethyl)phenylamino)-[1,2,4]triazolo[1,5-a]pyridin-5-yloxy)cyclohexanecarboxamide] was tested. Which IC50 [1] did it give?
Answer: 500 to 1000 nM

Question: Which IC50 [2] does the source give for `Cc1cc(Nc2nc3cccc(NC4CCOCC4)n3n2)cc2[nH]nc(C)c12` [compound 108] here?
Answer: 0.005 to 250 nM
